Patent US9295671B2, “Benzenesulfonamide derivatives of quinoxaline, pharmaceutical compositions thereof, and their use in methods for treating cancer” (NEUPHARMA, INC., priority 2011, dated 2016)
pIC50: −log10 of the molar value.

Assays:
[1] = tested on: SK-MEL-31 (human melanoma cell, Braf WT Mutant); test: Inhibition of cancer cell growth, MTT or MTS assay, SK-MEL-31; format: cell-based; conditions: 72 h, highest concentration 100 μM
Method: (§1) A375 (human melanoma cell, BRAF V600E Mutant), CHL-1 (human melanoma cell, BRAF wild type), SK-MEL-28 (human melanoma cell, BRAF V600E Mutant) and SK-MEL-31(human melanoma cell, Braf WT Mutant) were purchased from ATCC (American Type Culture Collection, Manassas, Va.). All cell lines were maintained in RPMI 1640 (Hyclone) or DMEM (Hyclone) supplemented with 10% fetal bovine serum (FBS, Hyclone), glutamine (2 mM, Hyclone), and antibiotics (penicillin 100 U/mL and streptomycin 50 μg/mL) at 37° C. in a humidified atmosphere of 5% CO2 in air.
(§2) To test IC50 of inhibition of individual compounds against each cell line, A375, SK-MEL-28and SK-MEL-31 cells were first plated in 96-well plates at densities of 3000 cells/well, and CHL-1 2500 cells/well. Cells were then incubated to allow cells to adhere and grow for 24 h. Cells were then treated with a series of concentrations of compounds for 72 h. The highest concentration of compounds was 10 μM for A375 and SK-MEL-28 cells and 100 μM for CHL-1 and SK-MEL-31 cells. Cells were then removed from the incubator and medium was removed by inverting and tapping the plates. 100 μL of MTT (0.5 mg/ml) or 10 μL or MTS was added to each well followed by an incubated at 37° C. for 4 h. Then MTT was removed and 200 μL of DMSO was added to each well, followed by reading the ODs at 570 nm after a 5 second shaking cycle in a 96-well spectrophotometer. For MTS method, MTS was not removed, and the incubated solutions were directly put in a 96-well spectrophotometer for the reading of the ODs at 492 nm.
(§3) IC50 was calculated by plotting the concentration of compound vs the percentage of inhibition in treated wells using GraphPad Prism 5. […] The scale utilized in Table 5 is as follows: +++ less than 500 nM; ++ between 500 nM and 1 μM; and + greater than 1 μM.

BRAF V600E [2] = biological target: T1, BRAF V600E (Homo sapiens, UniProt P15056, V600E); test: LanthaScreen kinase assay, BRAF V600E; format: biochemical; conditions: ATP 10 μM
T1 construct: purchased Invitrogen
T1 sequence (P15056 whole entry V600E): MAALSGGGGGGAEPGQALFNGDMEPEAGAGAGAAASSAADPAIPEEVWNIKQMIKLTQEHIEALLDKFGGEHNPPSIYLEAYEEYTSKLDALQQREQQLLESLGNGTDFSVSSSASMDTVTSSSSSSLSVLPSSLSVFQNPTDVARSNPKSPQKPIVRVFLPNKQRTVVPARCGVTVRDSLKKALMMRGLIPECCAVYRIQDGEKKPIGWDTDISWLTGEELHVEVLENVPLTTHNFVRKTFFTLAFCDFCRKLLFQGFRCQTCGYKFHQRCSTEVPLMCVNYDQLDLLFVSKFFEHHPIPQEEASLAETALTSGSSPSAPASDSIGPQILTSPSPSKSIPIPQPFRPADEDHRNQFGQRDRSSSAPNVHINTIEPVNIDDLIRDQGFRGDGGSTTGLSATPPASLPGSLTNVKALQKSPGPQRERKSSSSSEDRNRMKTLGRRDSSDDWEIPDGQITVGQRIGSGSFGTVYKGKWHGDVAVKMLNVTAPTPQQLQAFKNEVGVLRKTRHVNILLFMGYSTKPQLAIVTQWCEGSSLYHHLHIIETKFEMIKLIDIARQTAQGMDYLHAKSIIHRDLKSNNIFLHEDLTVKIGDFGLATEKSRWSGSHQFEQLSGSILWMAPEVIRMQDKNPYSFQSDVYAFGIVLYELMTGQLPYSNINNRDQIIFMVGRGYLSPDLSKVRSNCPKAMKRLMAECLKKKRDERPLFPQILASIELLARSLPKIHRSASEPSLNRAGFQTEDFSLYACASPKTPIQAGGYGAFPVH
Method: (§4) The inhibitory activities of compounds against BRAF or BRAF V600E protein were measured using Invitrogne's LanthaScreen™ kinase assay which is based on fluorescein-labeled MAP2K1 as a substrate. The assay procedure is described as follows.
(§5) The scale utilized in Table 3 is as follows: ++++ less than 50 nM; +++ between 50 and 100 nM; ++ between 100 nM and 1 μM; and + greater than 1 μM.

[3] = tested on: SK-MEL-28 (human melanoma cell, BRAF V600E Mutant); test: Inhibition of cancer cell growth, MTT or MTS assay, SK-MEL-28; format: cell-based; conditions: 72 h, highest concentration 10 μM
Method: as §1, §2, §3

BRAF [4] = biological target: T2, BRAF (Homo sapiens, UniProt P15056); test: LanthaScreen kinase assay, BRAF; format: biochemical; conditions: ATP 1 μM
T2 construct: purchased Invitrogen
T2 sequence (P15056 whole entry): as the sequence (P15056 whole entry V600E) above, with E600V counted along it
Method: as §4, §5

[5] = tested on: A375 (human melanoma cell, BRAF V600E Mutant); test: Inhibition of cancer cell growth, MTT or MTS assay, A375; format: cell-based; conditions: A-375, 72 h, highest concentration 10 μM (Table 5)
Method: as §1, §2, §3

BRAF V600E [6] = biological target: T1, BRAF V600E; test: Z′-LYTE kinase assay, BRAF V600E (Invitrogen); format: biochemical; conditions: Z′-LYTE method
Method: (§6) Inhibitory activities of compounds against BRAF or BRAF V600E were measured by Invitrogen using Z′-LYTE® Method as briefly described in the following.
(§7) 4× Test compounds are dissolved in 1% DMSO. […] ATP solutions are diluted to a 4×ATP working concentration in Kinase Buffer (50 mM HEPES pH 7.5, 0.01% BRIJ-35, 10 mM MgCl2, 1 mM EGTA).
(§8) Reaction starts by 30-second shaking of mixture consisting of 2.5 μL4× test compound, […] and 2.5 μL 4×ATP Solution on Bar-coded Corning, low volume NBS, black 384-well plate (Corning Cat. #3676). Then the mixture is incubated for 60-minute at room temperature for the kinase reaction, followed by addition of 5 μL of a 1:1024 dilution of development reagent A and 30-second plate shake. The mixture is then incubated for another 60-minute at room temperature for development reaction. Finally fluorescence is read by plate reader.

BRAF [7] = biological target: T2, BRAF; test: Z′-LYTE kinase assay, BRAF (Invitrogen); format: biochemical; conditions: Z′-LYTE method
Method: as §6, §7, §8

[8] = tested on: CHL-1 (human melanoma cell, BRAF wild type); test: Inhibition of cancer cell growth, MTT or MTS assay, CHL-1; format: cell-based; conditions: 72 h, highest concentration 100 μM
Method: as §1, §2, §3

A375 tumor xenograft = test: Inhibition of tumor growth in A375 tumor xenograft model; format: in vivo, BALB/c female nude mice; conditions: nude mice, Compound 12.5 mg/kg b.i.d. × 20 i.g., Cisplatin 6 mg/kg q7d × 3 i.p.
Method: Cells were implanted in BALB/c female nude mice and grown as tumor xenografts. When tumors achieved 120-200 mm^3, mice were assigned into treatment and control groups using randomized block design based upon their tumor volumes. Each group contained 6 tumor-bearing mice. Tumors were measured twice weekly in two dimensions using a caliper, and the tumor volume was calculated from two-dimensional measurements using the equation V=0.5×a×b^2 where a and b are the long and short diameters of the tumor, respectively. Relative tumor volume (RTV) was defined as TVt/TVi, the ratio of the volume on a given day (TVt) and the volume at the start of treatment (TVi). Relative tumor growth rate (T/C) was defined as RTVT/RTVC, the ratio of relative tumor volume of treatment group (RTVT) and relative tumor volume of control group (RTVC) on a given day. Inhibition of tumor growth in a A375 tumor xenograft model is shown below in Table 6 for a compound of Table 1.

IC50 SK-MEL-31 [1] | pIC50 (BRAF V600E [2]) | pIC50 [3] | pIC50 (BRAF [4]) | pIC50 [5] | inhibition at 1 µM (BRAF V600E [6]) [%] | inhibition at 1 µM (BRAF [7]) [%] | IC50 CHL-1 [8] | SMILES | Tumor Volume Post-treatment (A375 tumor xenograft) [mm^3] | Tumor Volume Pre-treatment (A375 tumor xenograft) [mm^3] | T/C (relative tumor growth rate, RTVT/RTVC) (A375 tumor xenograft; *p < 0.05, **p < 0.01) [%*]
No inhibition | > 7.30 | > 6.30 | 7.00 to 7.30 | > 6.30 | > 89 | > 89 | No inhibition | CCCS(=O)(=O)Nc1cc(F)c(F)c(C(=O)c2ccc3ncc(N4CCOCC4)nc3c2)c1F [Compound C09, N-(2,4,5-trifluoro-3-(3-morpholinoquinoxaline-6-carbonyl)phenyl)propane-1-sulfonamide] | – | – | –
No inhibition | > 7.30 | > 6.30 | 7.00 to 7.30 | > 6.30 | > 89 | > 89 | No inhibition | CCCS(=O)(=O)Nc1cc(F)c(F)c(C(=O)c2ccc3nccnc3c2)c1F [Compound C04, N-(2,4,5-trifluoro-3-(quinoxaline-6-carbonyl)phenyl)propane-1-sulfonamide] | – | – | –
– | – | – | – | – | – | – | – | N.N.[Cl][Pt][Cl] [Cisplatin] | 647 | 136 | 44.4
